For orientation: IC50 means the midpoint of a concentration-inhibition curve. One may read the DC50 as the concentration giving 50% degradation. As a reminder, the Dmax is the greatest extent of degradation seen.

Read-outs that look alike come from different tables or passages of the source.

The target of assay [1] is CRBN/DDB1 (Homo sapiens (Human), UniProt Q96SW2). The class given is binding. The conditions noted are these: His tagged CRBN+DDB-DLS7+CXU4, Cy5-labeled Thalidomide probe, one hour incubation; read-out: CRBN HTRF IC50. The method, then:
The binding potency was determined using H-TRF assay technology (Perkin Elmer). Compounds were serially diluted in DMSO and 0.2 μL volume was transferred to white 384-well plate.
(In general: In TR-FRET formats the signal depends on donor and acceptor labels being close together.)

Assay [2] concerns the target ER in MCF-7 cells (Homo sapiens (Human), UniProt P03372). Briefly: In-cell western (ICW) ER degradation assay in MCF-7 cells (Compounds A1-A70). The class given is cell-based. Particulars: for DC50: ER degradation, MCF-7 cells, 16 hrs treatment, 0.02 to 300 nM, read-out: MCF7 ICW DC50; for Dmax: MCF7, read-out: MCF7 ICW Dmax (%). The protocol: (§1) ERa degradative activity of compounds can be assessed in MCF-7 and T47D Cells. MCF-7 and T47D cell are seeded and are subsequently treated with the compounds at certain concentrations (e.g., 0.02 to 300 nM). DMSO can be used as vehicle control. Cells are fixed and are blocked with Intercept (PBS) Blocking Buffer (e.g., Li—COR, Odyssey Blocking Buffer), and are stained with ER (e.g., 1:500, Cell signaling) primary antibody for overnight at cold room. Secondary Antibody (e.g., IRDye 800CW Goat anti-Rabbit IgG) and CellTag 700 Stain are added in Intercept (PBS) Blocking Buffer. Finally, cell plate is placed in incubator to dry. Image and signal are captured on Odyssey® DLx Imaging System.
(§2) Day 3: After 16 hrs of compounds treatment, cells were fixed by 4% PFA and permeabilized with elution buffer (0.1% Triton X-100 in 1% PBS Solution). Subsequently, cells were blocked with Intercept (PBS) Blocking Buffer (Li—COR, Odyssey Blocking Buffer), and were stained with ER (1:500, Cell signaling) primary antibody for overnight at cold room.
(§3) Day 4: Remove the buffer, add IRDye 800CW Goat anti-Rabbit IgG Secondary Antibody (1:2000) and CellTag 700 Stain (1:500) in Intercept (PBS) Blocking Buffer. Finally, cell plate is placed in incubator to dry. Image and signal were captured on Odyssey® DLx Imaging System.

The target in assay [3] is ER in T47D cells (Homo sapiens (Human), UniProt P03372). Briefly: In-cell western (ICW) ER degradation assay in T47D cells (Compounds A1-A70). The conditions noted are these: for DC50: ER degradation, 0.02 to 300 nM; for Dmax: T47D, read-out: T47D ICW Dmax (%). The class given is cell-based. The method, then:
as §1, §2, §3

The nature of assay [4]: Cell growth assay (WST-8) (Compounds B1-B278). The class given is cell-based. The conditions noted are these: 96 h; T47D cell line; WST-8, 4 days; read-out: Cell Growth Inhibition in T47D cell line IC50. The procedure, abridged:
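Cells seeded at 1500/well overnight, treated one day later with compound doses for 4 days, then 10% WST-8 added for 2.5 h at 37° C in CO2. Absorbance at 450 nm, expressed relative to vehicle control over three independent repeats.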
On the technique in general: Tetrazolium assays rely on reduction of a dye to a coloured formazan, in cell work by metabolically active cells.

Assay [5] deals with ER (Homo sapiens (Human), UniProt P03372). As to the kind of experiment: In-cell western blot analysis of relative ER percentage (Compounds B1-B278). The class given is cell-based. The conditions noted are these: ER degradation, 16 hours, read-out: ICW DC50. The procedure, abridged: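 Cells seeded at 40,000 or 10,000 cells/well and treated with compound (final 0.5% DMSO) for 16 h, then formaldehyde-fixed, Triton-permeabilized and co-stained for ER and GAPDH with 680/800 secondaries; LI-COR plate read. ER level expressed relative to untreated/DMSO-treated wells set at 100%.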
Sequence of ER (P03372 whole entry): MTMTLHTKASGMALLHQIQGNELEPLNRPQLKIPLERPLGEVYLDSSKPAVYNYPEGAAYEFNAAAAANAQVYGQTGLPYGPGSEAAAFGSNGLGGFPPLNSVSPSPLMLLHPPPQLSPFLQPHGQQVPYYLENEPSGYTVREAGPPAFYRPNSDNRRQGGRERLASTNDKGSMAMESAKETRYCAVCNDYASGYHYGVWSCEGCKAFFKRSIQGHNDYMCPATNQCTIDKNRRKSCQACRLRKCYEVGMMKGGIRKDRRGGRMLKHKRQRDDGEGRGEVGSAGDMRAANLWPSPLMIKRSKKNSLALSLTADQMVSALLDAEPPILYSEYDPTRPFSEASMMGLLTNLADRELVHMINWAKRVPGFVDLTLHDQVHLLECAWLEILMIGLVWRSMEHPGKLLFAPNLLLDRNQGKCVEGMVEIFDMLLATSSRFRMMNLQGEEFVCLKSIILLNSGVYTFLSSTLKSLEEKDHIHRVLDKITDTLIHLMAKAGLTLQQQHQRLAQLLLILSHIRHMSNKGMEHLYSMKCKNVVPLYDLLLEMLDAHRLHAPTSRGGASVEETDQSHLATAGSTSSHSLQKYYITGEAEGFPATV

Sequence of ER in T47D cells (P03372 whole entry): as above
Sequence of ER in MCF-7 cells (P03372 whole entry): as above
Sequence of CRBN/DDB1 (Q96SW2 whole entry): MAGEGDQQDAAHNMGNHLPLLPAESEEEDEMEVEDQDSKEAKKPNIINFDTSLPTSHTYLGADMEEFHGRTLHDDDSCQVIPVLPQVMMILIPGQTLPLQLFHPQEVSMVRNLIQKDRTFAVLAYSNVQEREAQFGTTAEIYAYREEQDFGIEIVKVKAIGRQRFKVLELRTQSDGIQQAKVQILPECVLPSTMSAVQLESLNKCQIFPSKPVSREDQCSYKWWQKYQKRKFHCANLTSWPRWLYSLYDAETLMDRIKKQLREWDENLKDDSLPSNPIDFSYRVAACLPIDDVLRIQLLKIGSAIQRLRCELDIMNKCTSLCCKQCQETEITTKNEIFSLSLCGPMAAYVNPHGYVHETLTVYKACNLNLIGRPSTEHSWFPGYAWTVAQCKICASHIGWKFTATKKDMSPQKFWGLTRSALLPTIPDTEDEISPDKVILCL
Sequence of CRBN/DDB1 (Q16531 whole entry partner): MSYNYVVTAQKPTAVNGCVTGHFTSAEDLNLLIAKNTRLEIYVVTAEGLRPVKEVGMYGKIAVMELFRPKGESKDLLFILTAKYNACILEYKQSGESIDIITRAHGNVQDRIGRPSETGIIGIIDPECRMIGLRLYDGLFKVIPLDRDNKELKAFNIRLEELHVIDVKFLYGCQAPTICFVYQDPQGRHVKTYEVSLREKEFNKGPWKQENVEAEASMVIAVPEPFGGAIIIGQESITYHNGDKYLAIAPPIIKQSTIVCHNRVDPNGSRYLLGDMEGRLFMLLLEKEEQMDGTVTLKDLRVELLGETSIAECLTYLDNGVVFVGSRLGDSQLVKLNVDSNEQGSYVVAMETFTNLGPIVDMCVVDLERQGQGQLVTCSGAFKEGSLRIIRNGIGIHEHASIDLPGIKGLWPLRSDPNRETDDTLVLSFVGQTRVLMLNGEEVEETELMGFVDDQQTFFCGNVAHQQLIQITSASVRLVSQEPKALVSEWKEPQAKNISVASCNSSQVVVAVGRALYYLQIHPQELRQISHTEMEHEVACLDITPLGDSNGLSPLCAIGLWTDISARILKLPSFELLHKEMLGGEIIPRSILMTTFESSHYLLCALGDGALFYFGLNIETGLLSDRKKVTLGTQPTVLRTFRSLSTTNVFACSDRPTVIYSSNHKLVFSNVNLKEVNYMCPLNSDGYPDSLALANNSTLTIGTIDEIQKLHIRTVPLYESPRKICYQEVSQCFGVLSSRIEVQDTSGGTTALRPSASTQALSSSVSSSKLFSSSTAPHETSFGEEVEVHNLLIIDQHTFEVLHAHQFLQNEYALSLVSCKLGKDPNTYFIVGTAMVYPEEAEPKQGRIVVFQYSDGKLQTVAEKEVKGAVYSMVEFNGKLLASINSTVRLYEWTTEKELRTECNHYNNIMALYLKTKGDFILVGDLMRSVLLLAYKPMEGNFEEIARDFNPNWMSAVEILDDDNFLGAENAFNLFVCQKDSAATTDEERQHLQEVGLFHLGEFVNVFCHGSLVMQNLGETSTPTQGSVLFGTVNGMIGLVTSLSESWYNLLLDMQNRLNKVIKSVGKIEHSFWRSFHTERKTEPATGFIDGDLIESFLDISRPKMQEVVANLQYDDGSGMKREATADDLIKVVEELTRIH

For the molecule `C[C@@H]1Cc2c([nH]c3ccccc23)[C@@H](c2cnc(N3CCC(N4CCN(c5ccc(NC6CCC(=O)NC6=O)cc5F)CC4)CC3)nc2)N1CC(F)F` (stereo partly drawn) [Compound A1, 3-((4-(4-(1-(5-((1R,3R)-2-(2,2-difluoroethyl)-3-methyl-2,3,4,9-tetrahydro-1H-pyrido[3,4-b]indol-1-yl)pyrimidin-2-yl)piperidin-4-yl)piperazin-1-yl)-3-fluorophenyl)amino)piperidine-2,6-dione], the IC50 in assay [1] lay within 500 to 5000 nM.

Turning to `COc1cc(N2CCC(CN3CCN4c5cc6c(cc5OC[C@H]4C3)C(=O)N([C@@H]3CCC(=O)NC3=O)C6)CC2)ccc1[C@@H]1c2[nH]c3ccccc3c2C[C@@H](C)N1CC(F)F` [Compound A48, (R)-3-((R)-3-((1-(4-((1R,3R)-2-(2,2-difluoroethyl)-3-methyl-2,3,4,9-tetrahydro-1H-pyrido[3,4-b]indol-1-yl)-3-methoxyphenyl)piperidin-4-yl)methyl)-8-oxo-1,2,3,4,4a,5,8,10-octahydro-9H-pyrazino[1′,2′:4,5][1,4]oxazino[2,3-f]isoindol-9-yl)piperidine-2,6-dione], the DC50 in assay [2] is < 1 nM; in assay [3] (T47D cells, 16 hrs treatment), < 1 nM. In addition, the Dmax in assay [2] is > 75%; in assay [3] (maximal ER degradation, T47D cells, 16 hrs treatment), > 75%.

With `C[C@H]1Cc2c([nH]c3ccccc23)[C@H](c2cnc(N3CCC4(CC3)C[C@@H](CN3CCN5c6cc7c(cc6OC[C@@H]5C3)C(=O)N([C@@H]3CCC(=O)NC3=O)C7)CO4)nc2)N1CC(F)F` [Compound A68, (R)-3-((S)-3-(((S)-8-(5-((1S,3S)-2-(2,2-difluoroethyl)-3-methyl-2,3,4,9-tetrahydro-1H-pyrido[3,4-b]indol-1-yl)pyrimidin-2-yl)-1-oxa-8-azaspiro[4.5]decan-3-yl)methyl)-8-oxo-1,2,3,4,4a,5,8,10-octahydro-9H-pyrazino[1′,2′:4,5][1,4]oxazino[2,3-f]isoindol-9-yl)piperidine-2,6-dione], the DC50 was < 1 nM in assay [2] and < 1 nM in assay [3] (T47D cells, 16 hrs treatment). The maximal degradation (Dmax) in assay [2] is 50 to 75%; in assay [3], > 75%.

`COc1cc(N2CCC3(CC2)OCC(CN2CCN4c5ccc6c(c5OC[C@@H]4C2)CN([C@@H]2CCC(=O)NC2=O)C6=O)CO3)ccc1[C@@H]1c2[nH]c3ccccc3c2C[C@@H](C)N1CC(F)F` [Compound B271, (R)-3-((S)-7-((9-(4-((1R,3R)-2-(2,2-difluoroethyl)-3-methyl-2,3,4,9-tetrahydro-1H-pyrido[3,4-b]indol-1-yl)-3-methoxyphenyl)-1,5-dioxa-9-azaspiro[5.5]undecan-3-yl)methyl)-1-oxo-1,3,5,5a,6,7,8,9-octahydro-2H-pyrazino[1′,2′:4,5][1,4]oxazino[2,3-e]isoindol-2-yl)piperidine-2,6-dione]: in assay [4], the IC50 is < 1 nM. The half-maximal degradation concentration (DC50) in assay [5] was 10 to 100 nM.

As to `C[C@@H]1Cc2c([nH]c3ccccc23)[C@@H](c2cnc(N3CCC4(CC3)OCC(CN3CCN5c6ccc7c(c6OC[C@H]5C3)CN([C@H]3CCC(=O)NC3=O)C7=O)CO4)nc2)N1CC(F)(F)CO` [Compound B272, (S)-3-((R)-7-((9-(5-((1R,3R)-2-(2,2-difluoro-3-hydroxypropyl)-3-methyl-2,3,4,9-tetrahydro-1H-pyrido[3,4-b]indol-1-yl)pyrimidin-2-yl)-1,5-dioxa-9-azaspiro[5.5]undecan-3-yl)methyl)-1-oxo-1,3,5,5a,6,7,8,9-octahydro-2H-pyrazino[1′,2′:4,5][1,4]oxazino[2,3-e]isoindol-2-yl)piperidine-2,6-dione], the IC50 in assay [4] is < 1 nM. In assay [5], the DC50 was in the range of 10 to 100 nM.

Regarding `COc1cc(N2CCC3(CC2)OCC(CN2CCN4c5cc6c(cc5OC[C@H]4C2)C(=O)N(C2CCC(=O)NC2=O)C6)CO3)ccc1[C@@H]1c2[nH]c3ccccc3c2C[C@@H](C)N1CC(F)F` (stereo partly drawn) [Compound B273, 3-((R)-3-((9-(4-((1R,3R)-2-(2,2-difluoroethyl)-3-methyl-2,3,4,9-tetrahydro-1H-pyrido[3,4-b]indol-1-yl)-3-methoxyphenyl)-1,5-dioxa-9-azaspiro [5.5]undecan-3-yl)methyl)-8-oxo-1,2,3,4,4a,5,8,10-octahydro-9H-pyrazino[1′,2′:4,5][1,4]oxazino[2,3-f]isoindol-9-yl)piperidine-2,6-dione], in assay [4], the IC50 was 1 to 10 nM. In assay [5], the DC50 fell in the range of 10 to 100 nM.

As to `COc1cc(N2CCC3(CC2)OCC(CN2CCC4(CC2)COc2c4ccc4c2CN(C2CCC(=O)NC2=O)C4=O)CO3)ccc1[C@@H]1c2[nH]c3ccccc3c2C[C@@H](C)N1CC(F)F` (stereo partly drawn) [Compound B274, 3-(1′-((9-(4-((1R,3R)-2-(2,2-difluoroethyl)-3-methyl-2,3,4,9-tetrahydro-1H-pyrido[3,4-b]indol-1-yl)-3-methoxyphenyl)-1,5-dioxa-9-azaspiro[5.5]undecan-3-yl)methyl)-6-oxo-6,8-dihydro-2H,7H-spiro[furo[2,3-e]isoindole-3,4′-piperidin]-7-yl)piperidine-2,6-dione], in assay [4], the IC50 was < 1 nM. In assay [5], the DC50 lay within 10 to 100 nM.

Turning to `C[C@@H]1Cc2c([nH]c3ccccc23)[C@@H](c2cnc(N3CC4(C3)OCC(CN3CCN5c6ccc7c(c6OC[C@H]5C3)CN([C@H]3CCC(=O)NC3=O)C7=O)CO4)nc2)N1CC(F)(F)CO` [Compound B275, (S)-3-((R)-7-((2-(5-((1R,3R)-2-(2,2-difluoro-3-hydroxypropyl)-3-methyl-2,3,4,9-tetrahydro-1H-pyrido[3,4-b]indol-1-yl)pyrimidin-2-yl)-5,9-dioxa-2-azaspiro[3.5]nonan-7-yl)methyl)-1-oxo-1,3,5,5a,6,7,8,9-octahydro-2H-pyrazino[1′,2′:4,5][1,4]oxazino[2,3-e]isoindol-2-yl)piperidine-2,6-dione], the concentration for half-maximal inhibition (IC50) in assay [4] was > 10 nM. The DC50 in assay [5] was > 100 nM.

Regarding `C[C@@H]1Cc2c([nH]c3ccccc23)[C@@H](c2cnc(N3CC4(C3)OCC(CN3CCN5c6cc7c(cc6OC[C@@H]5C3)C(=O)N(C3CCC(=O)NC3=O)C7)CO4)nc2)N1CC(F)(F)CO` (stereo partly drawn) [Compound B276, 3-((S)-3-((2-(5-((1R,3R)-2-(2,2-difluoro-3-hydroxypropyl)-3-methyl-2,3,4,9-tetrahydro-1H-pyrido[3,4-b]indol-1-yl)pyrimidin-2-yl)-5,9-dioxa-2-azaspiro[3.5]nonan-7-yl)methyl)-8-oxo-1,2,3,4,4a,5,8,10-octahydro-9H-pyrazino[1′,2′:4,5][1,4]oxazino[2,3-f]isoindol-9-yl)piperidine-2,6-dione], in assay [4], the IC50 is > 10 nM. For the same molecule, in assay [5], the half-maximal degradation concentration (DC50) is > 100 nM.

As to `COc1cc(N2CC3(CCC(CN4CCN5c6ccc7c(c6OC[C@H]5C4)CN(C4CCC(=O)NC4=O)C7=O)CO3)C2)ccc1[C@@H]1c2[nH]c3ccccc3c2C[C@@H](C)N1CC(F)F` (stereo partly drawn) [Compound B277, 3-((5aR)-7-((2-(4-((1R,3R)-2-(2,2-difluoroethyl)-3-methyl-2,3,4,9-tetrahydro-1H-pyrido[3,4-b]indol-1-yl)-3-methoxyphenyl)-5-oxa-2-azaspiro[3.5]nonan-7-yl)methyl)-1-oxo-1,3,5,5a,6,7,8,9-octahydro-2H-pyrazino[1′,2′:4,5][1,4]oxazino[2,3-e]isoindol-2-yl)piperidine-2,6-dione], in assay [4], the IC50 was 1 to 10 nM. For the same molecule, in assay [5], the DC50 is 10 to 100 nM.

For the molecule `COc1cc(N2CC3(CCC(CN4CCN5c6cc7c(cc6OC[C@@H]5C4)C(=O)N(C4CCC(=O)NC4=O)C7)CO3)C2)ccc1[C@@H]1c2[nH]c3ccccc3c2C[C@@H](C)N1CC(F)F` (stereo partly drawn) [Compound B278, 3-((4aS)-3-((2-(4-((1R,3R)-2-(2,2-difluoroethyl)-3-methyl-2,3,4,9-tetrahydro-1H-pyrido[3,4-b]indol-1-yl)-3-methoxyphenyl)-5-oxa-2-azaspiro[3.5]nonan-7-yl)methyl)-8-oxo-1,2,3,4,4a,5,8,10-octahydro-9H-pyrazino[1′,2′:4,5][1,4]oxazino[2,3-f]isoindol-9-yl)piperidine-2,6-dione], the IC50 in assay [4] fell in the range of 1 to 10 nM. Also, the 50% degradation concentration (DC50) in assay [5] fell in the range of 10 to 100 nM.

The values are drawn from patent US20260007681A1, “INDOLE DERIVATIVES AS ESTROGEN RECEPTOR DEGRADERS” (REGENTS OF THE UNIVERSITY OF MICHIGAN, priority 2022, published 2026).
